According to patent US6683027B2, “Herbicidal mixtures” (BASF Aktienegesellschaft, priority 2000, dated 2004):

How the values were obtained:
Experiment in all cases: greenhouse post-emergence trial, percent damage vs untreated control 21 days after treatment
Type in all cases: in vivo
[1] = test system: Alopecurus myosuroides; conditions: ALOMY; for flupyrsulfuron alone (% control): Example 5; for pendimethalin alone (% control): Example 14; for MCPA alone (% control): Example 4
Method: (§1) The trials are carried out under greenhouse conditions in pre- and post-emergence applications. The plant seeds are sown in pots containing a loamy sand soil (0.5 l). The herbicides are applied as single treatments, or in a combination comprising a compound of formula I and compound selected from group (2) as defined above, before or after emergence of weeds and crop. The herbicidal performance is assessed as percent damage in comparison to the untreated control plants. The assessment is done 21 days after the treatment. Wheat and barley are treated at the 3-4 leaf stage, the broad-leaf weeds at the 2-4 leaf stage and annual grasses at the 2-3 leaf stage.

[2] = test system: Apera spica-venti; conditions: APESV; for pendimethalin alone (% control): Example 14; for cinidon-ethyl alone (% control): Example 10; for clodinafop alone (% control): Example 12; for mecoprop alone (% control): Example 7
Method: as §1

[3] = test system: Galium aparine; conditions: GALAP; for flupyrsulfuron alone (% control): Example 5; for clodinafop alone (% control): Example 12
Method: as §1

[4] = test system: Lolium perenne; conditions: LOLPE; for MCPA alone (% control): Example 4; for mecoprop alone (% control): Example 7
Method: as §1

[5] = test system: Setaria viridis; conditions: SETVI; for flupyrsulfuron alone (% control): Example 5; for MCPA alone (% control): Example 4; for cinidon-ethyl alone (% control): Example 10
Method: as §1

[6] = test system: Lamium purpureum; conditions: LAMPU; for MCPA alone (% control): Example 4; for clodinafop alone (% control): Example 12; for ioxynil alone (% control): Example 8; for mecoprop alone (% control): Example 7
Method: as §1

[7] = test system: Stellaria media; conditions: 480 g/ha, STEME, Example 4
Method: as §1

[8] = test system: Matricaria inodora; conditions: MATIN, Example 10
Method: as §1

## COc1cc(OC)nc(NC(=O)NS(=O)(=O)c2nc(C(F)(F)F)ccc2C(=O)O)n1 [flupyrsulfuron, reference compound]
[1]; 2.5 g/ha
  flupyrsulfuron alone (% control): 35%
[1]; 5 g/ha
  flupyrsulfuron alone (% control): 53%
[1]; 10 g/ha
  flupyrsulfuron alone (% control): 73%
[2]; 2.5 g/ha, Example 5
  flupyrsulfuron alone (% control): 0%
[3]; 5 g/ha
  flupyrsulfuron alone (% control): 0%
[3]; 10 g/ha
  flupyrsulfuron alone (% control): 0%
[4]; 10 g/ha, Example 5
  flupyrsulfuron alone (% control): 10%
[5]; 2.5 g/ha
  flupyrsulfuron alone (% control): 0%
[5]; 5 g/ha
  flupyrsulfuron alone (% control): 10%
[5]; 10 g/ha
  flupyrsulfuron alone (% control): 10%

## CCC(CC)Nc1c([N+](=O)[O-])cc(C)c(C)c1[N+](=O)[O-] [pendimethalin, reference compound]
[1]; 120 g/ha
  pendimethalin alone (% control): 0%
[1]; 240 g/ha
  pendimethalin alone (% control): 15%
[2]; 120 g/ha
  pendimethalin alone (% control): 5%
[2]; 240 g/ha
  pendimethalin alone (% control): 40%
[3]; 120 g/ha, Example 14
  pendimethalin alone (% control): 23%
[5]; 480 g/ha, Example 14
  pendimethalin alone (% control): 40%

## Cc1cc(Cl)ccc1OCC(=O)O [MCPA, reference compound]
[1]; 120 g/ha
  MCPA alone (% control): 0%
[1]; 240 g/ha
  MCPA alone (% control): 0%
[1]; 480 g/ha
  MCPA alone (% control): 0%
[2]; 240 g/ha, Example 4
  MCPA alone (% control): 0%
[6]; 120 g/ha
  MCPA alone (% control): 0%
[6]; 240 g/ha
  MCPA alone (% control): 0%
[6]; 480 g/ha
  MCPA alone (% control): 13%
[4]; 120 g/ha
  MCPA alone (% control): 0%
[4]; 240 g/ha
  MCPA alone (% control): 10%
[5]; 120 g/ha
  MCPA alone (% control): 25%
[5]; 240 g/ha
  MCPA alone (% control): 43%
[7]
  MCPA alone (% control): 65%

## CCOC(=O)C(Cl)=Cc1cc(N2C(=O)C3=C(CCCC3)C2=O)ccc1Cl [cinidon-ethyl, reference compound]
[2]; 25 g/ha
  cinidon-ethyl alone (% control): 0%
[2]; 50 g/ha
  cinidon-ethyl alone (% control): 0%
[3]; 25 g/ha, Example 10
  cinidon-ethyl alone (% control): 20%
[8]; 12.5 g/ha
  cinidon-ethyl alone (% control): 53%
[8]; 25 g/ha
  cinidon-ethyl alone (% control): 68%
[5]; 25 g/ha
  cinidon-ethyl alone (% control): 0%
[5]; 50 g/ha
  cinidon-ethyl alone (% control): 0%

## CCS(=O)(=O)c1nc2ccccn2c1S(=O)(=O)NC(=O)Nc1nc(OC)cc(OC)n1 [sulfosulfuron, reference compound]
[4]; 3.75 g/ha, Example 6
  sulfosulfuron alone (% control): 18%

## C[C@@H](Oc1ccc(Oc2ncc(Cl)cc2F)cc1)C(=O)O [clodinafop, reference compound]
[1]; 7.5 g/ha, Example 12
  clodinafop alone (% control): 10%
[2]; 15 g/ha
  clodinafop alone (% control): 0%
[2]; 30 g/ha
  clodinafop alone (% control): 15%
[3]; 7.5 g/ha
  clodinafop alone (% control): 0%
[3]; 15 g/ha
  clodinafop alone (% control): 0%
[3]; 30 g/ha
  clodinafop alone (% control): 0%
[6]; 7.5 g/ha
  clodinafop alone (% control): 0%
[6]; 15 g/ha
  clodinafop alone (% control): 0%
[4]; 15 g/ha, Example 12
  clodinafop alone (% control): 65%

## N#Cc1cc(I)c(O)c(I)c1 [ioxynil]
[2]; 120 g/ha, Example 8
  ioxynil alone (% control): 0%
[6]; 60 g/ha
  ioxynil alone (% control): 0%
[6]; 120 g/ha
  ioxynil alone (% control): 15%
[6]; 240 g/ha
  ioxynil alone (% control): 28%
[4]; 240 g/ha, Example 8
  ioxynil alone (% control): 0%

## Cc1cc(Cl)ccc1OC(C)C(=O)O (stereo not shown) [mecoprop, reference compound]
[2]; 240 g/ha
  mecoprop alone (% control): 0%
[2]; 480 g/ha
  mecoprop alone (% control): 0%
[2]; 960 g/ha
  mecoprop alone (% control): 0%
[6]; 240 g/ha
  mecoprop alone (% control): 10%
[6]; 480 g/ha
  mecoprop alone (% control): 48%
[4]; 240 g/ha
  mecoprop alone (% control): 0%
[4]; 480 g/ha
  mecoprop alone (% control): 0%
[4]; 960 g/ha
  mecoprop alone (% control): 0%
